From paper PMC12300041, “Tricyclic Isatin Derivatives as Anti-Inflammatory Compounds with High Kinase Binding Affinity” (Molecules, 2025)

Columns and labels:
Assay in all cases: KINOMEscan
Format in all cases: binding
[1] = target: T1, RPS6KA4 (Kin. Dom.1-N-term.) (Homo sapiens, UniProt O75676)
T1 construct: RPS6KA4 (Kin. Dom.1-N-term.); purchased Eurofins DiscoverX KINOMEscan
Outline: (§1)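 Compound and kinase were incubated at room temperature for 1 h, the free kinase fraction was captured with an immobilized affinity ligand, and capture was quantified by quantitative PCR; Kd values used a 12-point half-log series up to 33 μM.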

MST2 = target: T2, MST2 (Homo sapiens, UniProt Q13188)
T2 construct: purchased Eurofins DiscoverX KINOMEscan
Outline: as §1

[2] = target: T3, RPS6KA5 (Kin. Dom.2-C-term.) (Homo sapiens, UniProt O75582)
T3 construct: RPS6KA5 (Kin. Dom.2-C-term.); purchased Eurofins DiscoverX KINOMEscan
Outline: as §1

TIE1 = target: T4, TIE1 (Homo sapiens, UniProt P35590)
T4 construct: purchased Eurofins DiscoverX KINOMEscan
Outline: as §1

INSRR = target: T5, INSRR (Homo sapiens, UniProt P14616)
T5 construct: purchased Eurofins DiscoverX KINOMEscan
Outline: as §1

CSNK1A1L = target: T6, CSNK1A1L (Homo sapiens, UniProt Q8N752)
T6 construct: purchased Eurofins DiscoverX KINOMEscan
Outline: as §1

[3] = target: T7, RPS6KA4 (Kin. Dom.2-C-term.) (Homo sapiens, UniProt O75676)
T7 construct: RPS6KA4 (Kin. Dom.2-C-term.); purchased Eurofins DiscoverX KINOMEscan
Outline: as §1

ULK1 = target: T8, ULK1 (Homo sapiens, UniProt O75385)
T8 construct: purchased Eurofins DiscoverX KINOMEscan
Outline: as §1

ERBB4 = target: T9, ERBB4 (Homo sapiens, UniProt Q15303)
T9 construct: purchased Eurofins DiscoverX KINOMEscan
Outline: as §1

PRKD1 = target: T10, PRKD1 (Homo sapiens, UniProt Q15139)
T10 construct: purchased Eurofins DiscoverX KINOMEscan
Outline: as §1

AMPK-α1 = target: T11, AMPK-α1 (Homo sapiens, UniProt Q13131)
T11 construct: purchased Eurofins DiscoverX KINOMEscan
T11 sequence (Q13131 whole entry): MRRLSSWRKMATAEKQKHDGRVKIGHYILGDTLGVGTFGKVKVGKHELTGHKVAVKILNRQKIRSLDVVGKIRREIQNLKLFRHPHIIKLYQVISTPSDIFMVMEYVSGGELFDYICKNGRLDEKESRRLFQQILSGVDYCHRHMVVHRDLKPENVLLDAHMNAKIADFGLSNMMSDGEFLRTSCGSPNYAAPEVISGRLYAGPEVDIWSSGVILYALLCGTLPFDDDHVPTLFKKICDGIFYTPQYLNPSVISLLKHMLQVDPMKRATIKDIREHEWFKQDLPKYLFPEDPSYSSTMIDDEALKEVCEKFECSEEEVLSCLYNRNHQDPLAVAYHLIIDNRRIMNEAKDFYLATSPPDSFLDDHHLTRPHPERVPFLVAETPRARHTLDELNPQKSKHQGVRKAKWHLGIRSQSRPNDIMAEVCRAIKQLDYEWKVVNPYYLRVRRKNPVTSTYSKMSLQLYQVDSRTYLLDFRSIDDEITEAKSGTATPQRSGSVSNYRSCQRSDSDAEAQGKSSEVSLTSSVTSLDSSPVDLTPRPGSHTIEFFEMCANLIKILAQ
Outline: as §1

CSNK1G1 = target: T12, CSNK1G1 (Homo sapiens, UniProt Q9HCP0)
T12 construct: purchased Eurofins DiscoverX KINOMEscan
T12 sequence (Q9HCP0 whole entry): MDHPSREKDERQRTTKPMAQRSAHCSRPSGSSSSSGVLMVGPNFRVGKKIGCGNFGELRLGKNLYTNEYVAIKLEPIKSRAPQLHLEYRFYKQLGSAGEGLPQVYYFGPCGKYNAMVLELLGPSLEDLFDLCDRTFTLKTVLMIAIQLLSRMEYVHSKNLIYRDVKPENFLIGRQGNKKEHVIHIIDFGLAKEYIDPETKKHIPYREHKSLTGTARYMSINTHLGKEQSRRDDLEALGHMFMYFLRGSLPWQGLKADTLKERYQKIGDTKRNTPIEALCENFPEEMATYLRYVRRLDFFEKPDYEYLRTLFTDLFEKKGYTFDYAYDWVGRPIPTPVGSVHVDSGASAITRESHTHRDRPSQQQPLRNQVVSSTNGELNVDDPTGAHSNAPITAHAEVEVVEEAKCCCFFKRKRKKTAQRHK
Outline: as §1

CDK4-cyclinD3 = target: T13, CDK4-cyclinD3 (Homo sapiens, UniProt P11802)
T13 construct: purchased Eurofins DiscoverX KINOMEscan
Outline: as §1

ALK = target: T14, ALK (Homo sapiens, UniProt Q9UM73)
T14 construct: purchased Eurofins DiscoverX KINOMEscan
Outline: as §1

MYO3B = target: T15, MYO3B (Homo sapiens, UniProt Q8WXR4)
T15 construct: purchased Eurofins DiscoverX KINOMEscan
Outline: as §1

EGFR (G719S) = target: T16, EGFR (G719S) (Homo sapiens, UniProt P00533, G719S)
T16 construct: purchased Eurofins DiscoverX KINOMEscan
Outline: as §1

STK35 = target: T17, STK35 (Homo sapiens, UniProt Q8TDR2)
T17 construct: purchased Eurofins DiscoverX KINOMEscan
Outline: as §1

PRKCE = target: T18, PRKCE (Homo sapiens, UniProt Q02156)
T18 construct: purchased Eurofins DiscoverX KINOMEscan
Outline: as §1

SGK3 = target: T19, SGK3 (Homo sapiens, UniProt Q96BR1)
T19 construct: purchased Eurofins DiscoverX KINOMEscan
T19 sequence (Q96BR1 whole entry): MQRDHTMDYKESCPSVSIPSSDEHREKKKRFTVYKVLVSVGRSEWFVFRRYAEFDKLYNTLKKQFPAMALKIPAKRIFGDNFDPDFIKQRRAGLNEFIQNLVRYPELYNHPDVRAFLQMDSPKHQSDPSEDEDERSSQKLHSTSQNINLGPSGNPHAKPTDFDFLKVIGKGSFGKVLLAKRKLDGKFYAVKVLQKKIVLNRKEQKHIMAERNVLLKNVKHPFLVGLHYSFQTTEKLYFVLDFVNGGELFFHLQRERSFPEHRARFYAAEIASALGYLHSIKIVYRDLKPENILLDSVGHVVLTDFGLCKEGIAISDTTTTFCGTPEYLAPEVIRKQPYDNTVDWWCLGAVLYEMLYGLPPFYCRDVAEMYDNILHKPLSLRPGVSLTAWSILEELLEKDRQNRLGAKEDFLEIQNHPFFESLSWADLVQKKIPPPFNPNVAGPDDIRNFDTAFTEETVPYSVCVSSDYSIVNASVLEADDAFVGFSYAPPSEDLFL
Outline: as §1

PKN1 = target: T20, PKN1 (Homo sapiens, UniProt Q16512)
T20 construct: purchased Eurofins DiscoverX KINOMEscan
Outline: as §1

EGFR (L858R, T790M) = target: T21, EGFR (L858R, T790M) (Homo sapiens, UniProt P00533, L858R/T790M)
T21 construct: purchased Eurofins DiscoverX KINOMEscan
Outline: as §1

WNK4 = target: T22, WNK4 (Homo sapiens, UniProt Q96J92)
T22 construct: purchased Eurofins DiscoverX KINOMEscan
T22 sequence (Q96J92 whole entry): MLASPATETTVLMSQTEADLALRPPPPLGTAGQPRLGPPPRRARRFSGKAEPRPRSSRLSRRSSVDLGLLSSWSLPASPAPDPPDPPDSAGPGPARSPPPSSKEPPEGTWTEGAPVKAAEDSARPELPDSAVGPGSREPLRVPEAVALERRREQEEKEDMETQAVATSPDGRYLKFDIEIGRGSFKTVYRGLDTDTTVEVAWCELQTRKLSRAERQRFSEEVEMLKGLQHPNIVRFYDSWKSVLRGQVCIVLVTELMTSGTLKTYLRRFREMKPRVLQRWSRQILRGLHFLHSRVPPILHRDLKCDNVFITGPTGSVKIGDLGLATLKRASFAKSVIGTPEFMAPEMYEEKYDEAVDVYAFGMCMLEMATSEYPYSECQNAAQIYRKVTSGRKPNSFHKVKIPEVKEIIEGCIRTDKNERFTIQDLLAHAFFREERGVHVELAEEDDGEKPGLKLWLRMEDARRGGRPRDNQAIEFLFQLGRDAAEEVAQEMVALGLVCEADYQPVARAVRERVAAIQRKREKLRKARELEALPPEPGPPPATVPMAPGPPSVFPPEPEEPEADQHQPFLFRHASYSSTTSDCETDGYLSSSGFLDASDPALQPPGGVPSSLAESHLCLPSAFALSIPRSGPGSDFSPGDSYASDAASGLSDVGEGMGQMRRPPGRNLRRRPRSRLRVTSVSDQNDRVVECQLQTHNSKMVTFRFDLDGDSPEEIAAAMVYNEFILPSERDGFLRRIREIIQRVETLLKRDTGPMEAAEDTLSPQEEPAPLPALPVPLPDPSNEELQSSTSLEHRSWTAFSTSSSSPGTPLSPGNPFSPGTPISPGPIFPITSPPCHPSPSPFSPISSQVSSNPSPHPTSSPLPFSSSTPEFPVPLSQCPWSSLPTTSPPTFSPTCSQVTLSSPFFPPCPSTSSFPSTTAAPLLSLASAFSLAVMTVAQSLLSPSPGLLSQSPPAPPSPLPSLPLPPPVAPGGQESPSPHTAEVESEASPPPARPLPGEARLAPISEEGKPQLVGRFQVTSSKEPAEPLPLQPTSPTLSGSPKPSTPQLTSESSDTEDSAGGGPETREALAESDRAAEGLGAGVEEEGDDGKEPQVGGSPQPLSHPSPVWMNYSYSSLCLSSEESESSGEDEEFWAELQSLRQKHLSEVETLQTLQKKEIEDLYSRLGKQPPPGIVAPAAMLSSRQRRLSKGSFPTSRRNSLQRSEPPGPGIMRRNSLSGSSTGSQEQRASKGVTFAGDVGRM
Outline: as §1

YANK2 = target: T23, YANK2 (Homo sapiens, UniProt Q9NY57)
T23 construct: purchased Eurofins DiscoverX KINOMEscan
Outline: as §1

PLK3 = target: T24, PLK3 (Homo sapiens, UniProt Q9H4B4)
T24 construct: purchased Eurofins DiscoverX KINOMEscan
Outline: as §1

EPHB6 = target: T25, EPHB6 (Homo sapiens, UniProt O15197)
T25 construct: purchased Eurofins DiscoverX KINOMEscan
Outline: as §1

CLK2 = target: T26, CLK2 (Homo sapiens, UniProt P49760)
T26 construct: purchased Eurofins DiscoverX KINOMEscan
Outline: as §1

MAP3K1 = target: T27, MAP3K1 (Homo sapiens, UniProt Q13233)
T27 construct: purchased Eurofins DiscoverX KINOMEscan
Outline: as §1

WNK2 = target: T28, WNK2 (Homo sapiens, UniProt Q9Y3S1)
T28 construct: purchased Eurofins DiscoverX KINOMEscan
T28 sequence (Q9Y3S1 whole entry): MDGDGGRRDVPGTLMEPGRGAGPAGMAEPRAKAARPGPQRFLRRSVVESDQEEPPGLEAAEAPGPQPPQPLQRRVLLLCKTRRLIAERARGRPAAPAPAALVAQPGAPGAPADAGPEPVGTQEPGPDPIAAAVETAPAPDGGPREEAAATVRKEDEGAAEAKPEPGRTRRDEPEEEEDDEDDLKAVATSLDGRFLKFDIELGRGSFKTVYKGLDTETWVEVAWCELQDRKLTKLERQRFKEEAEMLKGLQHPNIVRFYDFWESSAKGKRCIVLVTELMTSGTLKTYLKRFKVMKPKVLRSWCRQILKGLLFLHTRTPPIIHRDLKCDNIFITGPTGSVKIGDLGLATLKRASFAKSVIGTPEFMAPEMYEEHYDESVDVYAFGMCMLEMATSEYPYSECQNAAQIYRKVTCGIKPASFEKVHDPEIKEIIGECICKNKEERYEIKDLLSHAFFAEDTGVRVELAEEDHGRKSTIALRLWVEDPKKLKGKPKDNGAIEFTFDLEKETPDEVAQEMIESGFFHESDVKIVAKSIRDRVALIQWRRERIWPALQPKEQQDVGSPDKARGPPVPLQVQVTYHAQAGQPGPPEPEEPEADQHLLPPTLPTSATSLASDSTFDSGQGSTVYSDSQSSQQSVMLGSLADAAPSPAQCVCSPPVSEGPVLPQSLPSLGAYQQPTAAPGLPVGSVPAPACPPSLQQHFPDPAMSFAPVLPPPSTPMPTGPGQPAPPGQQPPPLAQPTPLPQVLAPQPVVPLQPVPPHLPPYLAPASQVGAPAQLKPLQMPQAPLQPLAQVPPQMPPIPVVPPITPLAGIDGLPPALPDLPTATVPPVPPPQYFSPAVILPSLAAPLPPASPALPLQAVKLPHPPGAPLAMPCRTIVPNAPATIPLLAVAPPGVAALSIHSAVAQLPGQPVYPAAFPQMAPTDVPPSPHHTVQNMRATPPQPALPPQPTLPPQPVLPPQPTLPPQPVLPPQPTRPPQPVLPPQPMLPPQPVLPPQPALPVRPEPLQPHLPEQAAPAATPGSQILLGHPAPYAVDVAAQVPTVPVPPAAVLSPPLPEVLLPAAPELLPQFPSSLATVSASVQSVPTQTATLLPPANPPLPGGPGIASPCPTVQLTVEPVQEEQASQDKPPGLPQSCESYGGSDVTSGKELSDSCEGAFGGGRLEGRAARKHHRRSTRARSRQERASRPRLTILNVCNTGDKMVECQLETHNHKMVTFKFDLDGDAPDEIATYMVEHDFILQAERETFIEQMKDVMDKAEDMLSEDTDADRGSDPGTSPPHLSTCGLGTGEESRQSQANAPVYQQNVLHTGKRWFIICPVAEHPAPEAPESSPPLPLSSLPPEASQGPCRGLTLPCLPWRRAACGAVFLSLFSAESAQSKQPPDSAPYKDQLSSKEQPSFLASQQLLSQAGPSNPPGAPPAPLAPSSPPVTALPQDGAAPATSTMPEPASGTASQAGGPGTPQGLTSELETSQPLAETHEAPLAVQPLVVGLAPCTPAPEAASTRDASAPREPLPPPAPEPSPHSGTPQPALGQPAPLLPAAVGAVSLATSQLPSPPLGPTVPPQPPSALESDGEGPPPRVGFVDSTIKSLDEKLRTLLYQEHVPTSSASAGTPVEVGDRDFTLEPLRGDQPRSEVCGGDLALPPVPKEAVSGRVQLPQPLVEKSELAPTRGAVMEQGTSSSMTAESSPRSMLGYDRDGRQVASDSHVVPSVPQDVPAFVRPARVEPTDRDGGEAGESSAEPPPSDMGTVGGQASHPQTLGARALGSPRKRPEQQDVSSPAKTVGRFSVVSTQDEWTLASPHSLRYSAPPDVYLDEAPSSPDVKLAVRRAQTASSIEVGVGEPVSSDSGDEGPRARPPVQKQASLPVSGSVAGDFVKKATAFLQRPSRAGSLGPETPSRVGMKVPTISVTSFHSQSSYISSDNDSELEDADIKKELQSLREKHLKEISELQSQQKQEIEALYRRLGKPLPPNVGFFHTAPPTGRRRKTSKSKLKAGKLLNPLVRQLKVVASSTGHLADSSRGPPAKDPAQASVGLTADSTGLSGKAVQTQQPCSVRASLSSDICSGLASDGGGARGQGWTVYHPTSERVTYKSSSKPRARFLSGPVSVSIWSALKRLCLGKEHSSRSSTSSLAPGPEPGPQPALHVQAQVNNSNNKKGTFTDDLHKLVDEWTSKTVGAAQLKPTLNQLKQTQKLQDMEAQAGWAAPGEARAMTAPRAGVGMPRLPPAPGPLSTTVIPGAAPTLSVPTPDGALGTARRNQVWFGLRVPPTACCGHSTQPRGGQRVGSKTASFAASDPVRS
Outline: as §1

GRK2 = target: T29, GRK2 (Homo sapiens, UniProt P25098)
T29 construct: purchased Eurofins DiscoverX KINOMEscan
Outline: as §1

MEK2 = target: T30, MEK2 (Homo sapiens, UniProt P36507)
T30 construct: purchased Eurofins DiscoverX KINOMEscan
Outline: as §1

PRKR = target: T31, PRKR (Homo sapiens, UniProt P19525)
T31 construct: purchased Eurofins DiscoverX KINOMEscan
Outline: as §1

PIK3CA (E545A) = target: T32, PIK3CA (E545A) (Homo sapiens, UniProt P42336, E545A)
T32 construct: purchased Eurofins DiscoverX KINOMEscan
Outline: as §1

MAPKAPK2 = target: T33, MAPKAPK2 (Homo sapiens, UniProt P49137)
T33 construct: purchased Eurofins DiscoverX KINOMEscan
Outline: as §1

PIP5K2C = target: T34, PIP5K2C (Homo sapiens, UniProt Q8TBX8)
T34 construct: purchased Eurofins DiscoverX KINOMEscan
Outline: as §1

MLK1 = target: T35, MLK1 (Homo sapiens, UniProt P80192)
T35 construct: purchased Eurofins DiscoverX KINOMEscan
Outline: as §1

MAK = target: T36, MAK (Homo sapiens, UniProt P20794)
T36 construct: purchased Eurofins DiscoverX KINOMEscan
Outline: as §1

WNK3 = target: T37, WNK3 (Homo sapiens, UniProt Q9BYP7)
T37 construct: purchased Eurofins DiscoverX KINOMEscan
Outline: as §1

EPHA2 = target: T38, EPHA2 (Homo sapiens, UniProt P29317)
T38 construct: purchased Eurofins DiscoverX KINOMEscan
Outline: as §1

In the case of O=C1Nc2c(cc([N+](=O)[O-])c3c2CCCC3)C1=NO [Compound 5d, 3-(Hydroxyimino)-5-nitro-1,3,6,7,8,9-hexahydro-2H-benzo[g]indol-2-one], the inhibition at 10 µM [1] is reported as 26%, the inhibition at 10 µM (MST2) is reported as 39% and the inhibition at 10 µM [2] is reported as 89.4%. For the same compound, the inhibition at 10 µM (TIE1) was 12%, the inhibition at 10 µM (INSRR) was 4% and the inhibition at 10 µM (CSNK1A1L) was 63%. The inhibition at 10 µM [3] was 89.3%, the inhibition at 10 µM (ULK1) was 15% and the inhibition at 10 µM (ERBB4) was 4%. The inhibition at 10 µM (PRKD1) was 61%, the inhibition at 10 µM (AMPK-α1) was 28% and the inhibition at 10 µM (CSNK1G1) was 84%. It also gave an inhibition at 10 µM (CDK4-cyclinD3) of 22%, an inhibition at 10 µM (ALK) of 46% and an inhibition at 10 µM (MYO3B) of 30%. The inhibition at 10 µM (EGFR (G719S)) was 13%, the inhibition at 10 µM (STK35) was 1% and the inhibition at 10 µM (PRKCE) was 61%. It also gave an inhibition at 10 µM (SGK3) of 55%, an inhibition at 10 µM (PKN1) of 9% and an inhibition at 10 µM (EGFR (L858R, T790M)) of 2%. For the same compound, the inhibition at 10 µM (WNK4) was 1%, the inhibition at 10 µM (YANK2) was 0% and the inhibition at 10 µM (PLK3) was 51%. It also gave an inhibition at 10 µM (EPHB6) of 80%, an inhibition at 10 µM (CLK2) of 95.9% and an inhibition at 10 µM (MAP3K1) of 6%. It also gave an inhibition at 10 µM (WNK2) of 0%, an inhibition at 10 µM (GRK2) of 48% and an inhibition at 10 µM (MEK2) of 87%. The inhibition at 10 µM (PRKR) was 6%, the inhibition at 10 µM (PIK3CA (E545A)) was 30% and the inhibition at 10 µM (MAPKAPK2) was 9%. It also gave an inhibition at 10 µM (PIP5K2C) of 40%, an inhibition at 10 µM (MLK1) of 18% and an inhibition at 10 µM (MAK) of 5%. For the same compound, the inhibition at 10 µM (WNK3) was 28% and the inhibition at 10 µM (EPHA2) was 19%.
